Measurements taken from patent US5756510A, “Benzamide analogs useful as PARP (ADP-ribosyltransferase, ADPRT) DNA repair enzyme inhibitors” (Newcastle University Ventures Limited, priority 1994, dated 1998).
Read-outs that look alike come from different tables or passages of the source.

Assays:
L1210 cells [1] = assay: clonogenic survival assay with temozolomide (TM); details: 16 hours, ± S.E.
Description: (§1) Again using cultures of the murine leukaemia L1210 cell line, growth inhibition experiments were carried out to assess the cytostatic effects of the compounds and clonogenic survival assays were performed to assess cytotoxicity, especially in relation to use of the compounds in conjunction with DNA damaging cytotoxic agents such as cytotoxic antitumour drugs or high energy radiation.
After 7-10 days colonies were stained with 0.5 mg/ml MTT and counted by eye on a gridded light box. Survival curves were plotted and typical DEF10 values obtained are hereinafter given in Table II (DEF10 being defined as the ratio of the concentration of TM that reduces survival to 10% divided by the concentration of TM that reduces survival to 10% in the presence of a fixed concentration of PARP inhibitor). Each DEF10 value in Table II represents the average ratio±S.E. (standard error) derived from the averaged 10% survival for TM alone (675±31 μM from 22 independent survival curves) divided by individual 10% survival values from at least 3 independent survival curves performed in the presence of a fixed concentration of inhibitor.
For NU1025 maximal potentiation of cytotoxicity was obtained by a concentration in the range of 50-100 μM, and was significant at doses as low as 10 μM.

in vitro = details: mouse, l1210 cells
Description: as §1

[2] = system: DNA strand breaks in L1210 cells; assay: DNA strand break assay (alkaline elution); assay type: cell-based, murine
Description: as §1
All the compounds were tested for their ability to produce strand breaks when used alone.

L1210 cells [3] = assay: growth inhibition assay, alone or with temozolomide; assay type: cell-based, murine; details: Mus musculus, L1210, 48 h
Description: as §1
At this time one set of replicates would be counted using a Coulter counter (N0), and 48 hours later the remaining samples would be counted (N1). The percentage (%) growth inhibition of drug-treated samples could then be estimated. In drug combination experiments, where evidence of synergistic effects on cell growth or clonogenicity was being sought, a single, fixed concentration of a cytotoxic drug sample, e.g. temozolomide, would be taken as the control value.

[4] = solubility check of test compound in assay buffer (DMSO solution added to isotonic buffer, microscope); assay type: physicochemical
Excerpt: The compounds being tested were generally made up as a concentrated solution in DMSO (Dimethyl sulphoxide). The solubility of the compound was then checked by adding a quantity of the DMSO solution to a quantity of the isotonic buffer, in the required final proportions that were to be used in carrying out the assay, and after an interval the solution was examined under a microscope for any signs of crystals forming.

PARP = biological target: T1, PARP (Mus musculus, UniProt P11103); assay: PARP inhibition assay ([32P]-NAD incorporation into TCA-precipitated poly(ADP-ribose) in permeabilised L1210 cells, oligonucleotide activated); assay type: biochemical, L1210 murine leukaemia cells
T1 construct: endogenous in cells; host or cells: L1210 murine leukaemia cells, permeabilised by hypotonic buffer and cold shock
T1 sequence (P11103 whole entry): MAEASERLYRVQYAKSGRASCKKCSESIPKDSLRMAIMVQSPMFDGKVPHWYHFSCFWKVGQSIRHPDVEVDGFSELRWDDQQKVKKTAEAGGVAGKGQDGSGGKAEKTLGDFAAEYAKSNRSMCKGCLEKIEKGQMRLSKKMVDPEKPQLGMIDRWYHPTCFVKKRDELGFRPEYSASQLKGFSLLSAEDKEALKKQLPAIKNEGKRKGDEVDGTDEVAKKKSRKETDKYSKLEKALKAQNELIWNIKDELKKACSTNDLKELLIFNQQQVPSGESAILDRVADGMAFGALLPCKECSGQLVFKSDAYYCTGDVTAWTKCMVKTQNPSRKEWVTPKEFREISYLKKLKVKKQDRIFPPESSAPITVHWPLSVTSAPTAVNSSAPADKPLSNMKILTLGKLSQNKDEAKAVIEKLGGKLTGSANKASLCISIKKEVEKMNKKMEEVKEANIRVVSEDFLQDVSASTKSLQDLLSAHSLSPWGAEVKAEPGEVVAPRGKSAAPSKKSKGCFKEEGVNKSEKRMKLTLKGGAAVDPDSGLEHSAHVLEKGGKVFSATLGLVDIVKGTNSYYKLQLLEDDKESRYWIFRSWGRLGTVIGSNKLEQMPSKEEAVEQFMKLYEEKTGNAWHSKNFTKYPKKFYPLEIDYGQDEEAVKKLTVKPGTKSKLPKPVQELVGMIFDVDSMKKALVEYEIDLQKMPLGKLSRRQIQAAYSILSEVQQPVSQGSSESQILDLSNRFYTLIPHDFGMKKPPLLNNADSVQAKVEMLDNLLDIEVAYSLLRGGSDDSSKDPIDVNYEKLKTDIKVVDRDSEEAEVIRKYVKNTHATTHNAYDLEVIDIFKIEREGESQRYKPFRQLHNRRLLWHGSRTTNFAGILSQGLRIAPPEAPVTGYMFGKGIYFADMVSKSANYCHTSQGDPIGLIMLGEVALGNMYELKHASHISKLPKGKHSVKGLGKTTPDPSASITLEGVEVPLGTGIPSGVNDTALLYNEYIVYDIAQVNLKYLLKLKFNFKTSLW
Excerpt: In principle, the PARP assay used relies upon activating endogenous PARP (as hereinafter described) in cells containing exogenous [^32 P]-NAD^+ introduced therein by suspending the cells in a solution of [^32 P]-NAD^+ to which they have been rendered permeable in an initial pretreatment step. The poly(ADP-ribose) which is then synthesised by the enzyme can be precipitated by trichloracetic acid (TCA) and the amount of radio-labelled ^32 p incorporated therein measured, e.g. using a scintillation counter, to give a measure of the activity of the PARP under the particular conditions of the experiment. By repeating the experiment following the same procedure, and under the same conditions, in the presence of each compound to be tested the reduction in enzyme activity, representative of the inhibitory effect of the test compound, can then be ascertained from the reduction, if any, of the amount of [^32 P] measured in the TCA precipitated poly(ADP-ribose).
Thus, with a range of different compounds a set of comparative values for inhibitory activity can be obtained.
In practice, L1210 murine leukaemia cells were used as the source of the PARP enzyme after being rendered permeable to exogenous [^32 P]NAD by exposure to hypotonic buffer and cold shock. […] This oligonucleotide sequence snaps back on itself to form a double-stranded molecule with a single blunt end and provides an effective substrate for activation of PARP.
The experimental protocol adopted, in which a synthetic oligonucleotide as mentioned above is introduced as a specific activator of PARP, discriminates between PARP and other mono-ADP-ribosyltransferases in the cells.
The oligonucleotide having the palindromic sequence […], synthesised by conventional means, was vacuum dried and stored as pellets in a freezer. Before use, it was made up to 200 μg/ml in 10 mM Tris/HCl, pH 7.8, with each pellet being dissolved completely in […] of buffer. The solution was then heated to 60° C. in a water bath for 15 minutes, and allowed to cool slowly to ensure correct reannealing. After adding 9.5 ml of buffer, the concentration was checked by measuring the optical density of a diluted sample at 260 nm. The main solution was then diluted to a concentration of 200 μg/ml and stored in 500 μl aliquots in a freezer, ready for use.
The L1210 cells used as the source of the PARP enzyme were maintained as a suspension culture in RPMI medium+10% foetal bovine serum+glutamine and antibiotics (penicillin and streptomycin). HEPES and sodium bicarbonate were also added, and the cells were seeded in 100 ml of medium such that there would be a concentration of approximately 8×10^5 /ml at the time of carrying out an assay.
The solubility of the compound was then checked by adding a quantity of the DMSO solution to a quantity of the isotonic buffer, in the required final proportions that were to be used in carrying out the assay, and after an interval the solution was examined under a microscope for any signs of crystals forming.
A desired quantity of the cells, ascertained by counting with a haemocytometer, was then centrifuged (1500 rpm in a "Europa" model 24M centrifuge for 5 minutes), the supernatant removed, and the pellets obtained were resuspended in 20 ml Dul A at 4° C. before centrifuging again at 1500 rpm and 4° C. After again removing the supernatant, the cells were resuspended at a concentration of 3×10^7 cells/ml in ice cold hypotonic buffer and left for 30 minutes on ice. Nine volumes were then added of ice cold isotonic buffer, and the cells, now rendered permeable to exogenous NAD^+, were then used within the next hour for carrying out an assay.

L1210 cells [5] = assay: clonogenic survival assay, gamma ray irradiation; assay type: cell-based, murine; details: 200 μM
Description: In other clonogenic survival assays gamma ray irradiation was used to damage the cells. Typically, L1210 cells (3 ml, 4×10^3 /ml in plastic bijoux bottles) were irradiated at 4° C. with varying doses of gamma rays in the presence or absence of 10 mM 3AB or 200 μM NU1057 and a final concentration of 2% DMSO. The cells were then incubated at 37° C. for 2 hours in the continued presence or absence of PARP inhibitor prior to seeding for colony formation.

[6] = 10 μM, read-out: % Inhibition (PARP)
[7] = 30 μM, read-out: % Inhibition (PARP)

## NC(=O)c1ccccc1 [BENZAMIDE, benzamide]
L1210 cells [1]; 1 mM inhibitor
  DEF10 (TM): 4.0 ± 0.7
L1210 cells [1]; 3 mM inhibitor
  DEF10 (TM): 6.9 ± 0.2
In vitro
  CC50 at 24 h: 6000 ± 1500 µM
[2]; 150 μM TM, 1 hour
  concentration above which strand breakage with TM increases significantly: above 3 mM
[2]; 20 mM, 24 hour incubation
  effect on DNA strand break levels, compound alone: no significant effect on DNA strand break levels
L1210 cells [3]; read-out: IC50 INHIBITOR + 100 μM TM (growth inhibition)
  IC50: 840 ± 120 µM
L1210 cells [3]; read-out: IC50 INHIBITOR ALONE (growth inhibition)
  IC50: 2500 ± 300 µM

## COc1ccc(COc2cccc(C(N)=O)c2)cc1 [NU1006, 3-(4-methoxybenzyloxy)benzamide]
[4]; 100 μM
  insolubility at assay concentration: insol.
PARP; [6]
  inhibition at 10 µM: 58%
PARP; [7]
  inhibition at 30 µM: 74%

## NC(=O)c1cccc(OCc2ccc([N+](=O)[O-])cc2)c1 [NU1007, 3-(4-nitrobenzyloxy)benzamide]
[4]; 30 μM
  insolubility at assay concentration: insol.
[4]; 100 μM
  insolubility at assay concentration: insol.
PARP; [6]
  inhibition at 10 µM: 26%

## NC(=O)c1cccc(OCC2CCCCC2)c1 [NU1008, 3-(cyclohexylmethyloxy)benzamide]
[4]; 10 μM
  insolubility at assay concentration: insol.
[4]; 30 μM
  insolubility at assay concentration: insol.
[4]; 100 μM
  insolubility at assay concentration: insol.
PARP
  PARP inhibitory activity in words: some PARP inhibitory activity

## NC(=O)c1cccc(OCc2ccc(Br)cc2)c1 [NU1014, 3-(4-Bromobenzyloxy)benzamide]
[4]; 100 μM
  insolubility at assay concentration: insol.
PARP; [6]
  inhibition at 10 µM: 23%
PARP; [7]
  inhibition at 30 µM: 36%

## NC(=O)c1cccc(OCc2ccc(F)cc2)c1 [NU1015, 3-(4-Fluorobenzyloxy)benzamide]
[4]; 100 μM
  insolubility at assay concentration: insol.
PARP; read-out: % Inhibition (PARP), 10 μM
  inhibition at 10 µM: 20%
PARP; read-out: % Inhibition (PARP), 30 μM
  inhibition at 30 µM: 52%

## NC(=O)c1cccc(OCc2cccc([N+](=O)[O-])c2)c1 [NU1017, 3-(3-Nitrobenzyloxy)benzamide]
[4]; 100 μM
  insolubility at assay concentration: insol.
PARP; [6]
  inhibition at 10 µM: 21%
PARP; [7]
  inhibition at 30 µM: 40%

## NC(=O)c1cccc(OCCCCCCCCn2cnc3c(Cl)ncnc32)c1 [NU1027, 3-[8-(6-chloropurin-9-yl)octyloxy]benzamide]
[4]; 30 μM
  insolubility at assay concentration: insol.
[4]; 100 μM
  insolubility at assay concentration: insol.
PARP; [6]
  inhibition at 10 µM: 30%

## N#Cc1ccc(COc2cccc(C(N)=O)c2)cc1 [NU1037, 3-(4-cyanobenzyloxy)benzamide]
[4]; 30 μM
  insolubility at assay concentration: insol.
[4]; 100 μM
  insolubility at assay concentration: insol.
PARP; [6]
  inhibition at 10 µM: 33%

## NC(=O)c1cccc(OCc2ccccc2[N+](=O)[O-])c1 [NU1042, 3-(2-Nitrobenzyloxy)benzamide]
[4]; 10 μM
  insolubility at assay concentration: insol.
[4]; 30 μM
  insolubility at assay concentration: insol.
[4]; 100 μM
  insolubility at assay concentration: insol.

## CCCCCCOc1cccc(C(N)=O)c1 [NU1043, 3-hexyloxybenzamide]
[4]; 100 μM
  insolubility at assay concentration: insol.
PARP; [6]
  inhibition at 10 µM: 15%
PARP; [7]
  inhibition at 30 µM: 39%

## CCCCCCCOc1cccc(C(N)=O)c1 [NU1044, 3-heptyloxybenzamide]
[4]; 30 μM
  insolubility at assay concentration: insol.
[4]; 100 μM
  insolubility at assay concentration: insol.
PARP; [6]
  inhibition at 10 µM: 26%

## CCCCCCCCOc1cccc(C(N)=O)c1 [NU1045, 3-octyloxybenzamide]
[4]; 10 μM
  insolubility at assay concentration: insol.
[4]; 30 μM
  insolubility at assay concentration: insol.
[4]; 100 μM
  insolubility at assay concentration: insol.

## NC(=O)c1cccc(OC/C=C/c2ccccc2)c1 [NU1050, 3-(Cinnamyloxy)benzamide]
[4]; 30 μM
  insolubility at assay concentration: insol.
[4]; 100 μM
  insolubility at assay concentration: insol.
PARP; [6]
  inhibition at 10 µM: 23%

## O=c1[nH]c(-c2ccc([N+](=O)[O-])cc2)nc2c(O)cccc12 [NU1057, 8-Hydroxy-2-(4-nitrophenyl)quinazolin-4-one]
L1210 cells [5]
  potentiation of gamma ray cytotoxicity in words: significant potentiation of gamma ray cytotoxicity
L1210 cells [5]; 2% DMSO, 2 hours at 37° C.
  DEF10 (gamma ray cytotoxicity): 1.1
PARP
  IC50: 0.23 µM
  PARP inhibitory activity in words: potent PARP inhibitors
PARP; [6]
  inhibition at 10 µM: 92%
